# How the values were obtained:
# Experiment in all cases: Greenhouse postemergence herbicidal effect, visual injury after 20-22 d
# Assay type in all cases: in vivo
# [1] = system: wild mustard (SINAR, Sinapis arvensis); conditions: for visual injury: Table 1
# Excerpt: (§1) Seeds of the desired test plant species were planted in a 90:10% v/v (volume/volume) mixture of PRO-MIX® BX (Premier Tech Horticulture, Quakertown, Pa., USA) and PROFILE® GREENS GRADE™ (Profile Products LLC, Buffalo Grove, Ill., USA) planting mixture, which typically has a pH of 5.2 to 6.2 and an organic matter content of at least 50 percent, in plastic pots with a surface area of 103.2 square centimeters (cm^2). In some aspects, to ensure good germination and healthy plants, a fungicide treatment and/or other chemical or physical treatment was applied. The plants were grown for 7-36 days (d) in a greenhouse with an approximate 14-hour (h) photoperiod which was maintained at about 23° C. during the day and 22° C. during the night. Nutrients and water were added on a regular basis and supplemental lighting was provided with overhead metal halide 1000-Watt lamps as necessary. The plants were employed for testing when they reached the second or third true leaf stage.
# (§2) Emulsifiable concentrates of each of each pyridine carboxylate herbicide (Compound A or Compound B) were prepared at 100 grams acid equivalent per liter (g ae/L). The emulsifiable concentrates also included a safener, cloquintocet-mexyl, at 120 grams active ingredient per liter (g ai/L). An aliquot of each emulsifiable concentrate was placed in a 25 mL glass vial and diluted with an aqueous mixture of 1.25% (v/v) ACTIROB® B esterified rapeseed oil (Bayer Crop Science, Research Triangle Park, N.C., USA) or MSO® Concentrate with LECI-TECH® methylated soybean oil (Loveland Products, Loveland, Colo., USA) to obtain concentrated stock solutions at the highest application rate for each herbicide, based upon a 12 milliliter (mL) application volume at a rate of 187 liters per hectare (L/ha). The concentrated stock solutions were further diluted with an aqueous mixture of 1.25% v/v ACTIROB® B or MSO® Concentrate with LECI-TECH® to obtain stock solutions at reduced application rates for each herbicide. Spray solutions of the herbicide combinations (Compound A or Compound B plus PDS inhibitor herbicide) were prepared by adding weighed amounts or aliquots of the PDS inhibitor herbicide to the stock solutions of Compound A or Compound B to form 12-mL spray solutions in two- or three-way combinations.
# (§3) The spray solutions were applied to the plant material with an overhead Mandel track sprayer equipped with 8002E nozzles calibrated to deliver 187 L/ha over an application area of 0.503 square meters (m^2) at a spray height of 18 inches ([…] centimeters (cm)) above the average plant canopy. Control plants were sprayed in the same manner with the solvent blank. All pyridine carboxylate herbicide (component a) application rates are given as “g ae/ha” and all PDS inhibitor herbicide (component b) application rates are given as “g ai/ha.”
# (§4) The treated plants and control plants were placed in a greenhouse as described above and watered by sub-irrigation to prevent wash-off of the test compounds. After 20-22 d, the condition of the test plants as compared with that of the control plants was determined visually and scored on a scale of 0 to 100 percent where 0 corresponds to no injury and 100 corresponds to complete kill.
# [2] = system: broad-leaf dock (RUMOB, Rumex obtusifolius); conditions: Table 4
# Excerpt: as §1, §2, §3, §4
# [3] = system: pigweed (AMARE, Amaranthus retroflexus); conditions: for visual injury: Table 1
# Excerpt: as §1, §2, §3, §4
# [4] = system: spring rape (BRSNN, Brassica napus)
# Excerpt: as §1, §2, §3, §4
# [5] = system: wild buckwheat (POLCO, Polygonum convolvulus); conditions: for visual injury: Table 1
# Excerpt: as §1, §2, §3, §4
# [6] = system: winter rape (BRSNW, Brassica napus); conditions: for visual injury: Table 1
# Excerpt: as §1, §2, §3, §4
# [7] = system: kochia (KCHSC, Kochia scoparia); conditions: for visual injury: Table 1
# Excerpt: as §1, §2, §3, §4
# [8] = system: Italian ryegrass (LOLMU, Lolium multiflorum.); conditions: Table 4
# Excerpt: as §1, §2, §3, §4
# [9] = system: Canada thistle (CIRAR, Cirsium arvense); conditions: for visual injury: Table 1
# Excerpt: as §1, §2, §3, §4
smiles,measurement,setting,value
"N#CCOC(=O)c1nc(-c2ccc3cc[nH]c3c2F)c(F)c(N)c1Cl [Compound A, cyanomethyl 4-amino-3-chloro-5-fluoro-6-(7-fluoro-1H-indol-6-yl)pyridine-2-carboxylate]",visual injury,[1]; 7.5 g/ha,88%
same,visual injury Obs,"[1]; 7.5 g/ha, Table 2",88%
same,visual injury Obs,"[1]; 7.5 g/ha, Table 3",85%
same,visual injury Obs,"[1]; 7.5 g/ha, Table 7",85%
same,visual injury,[1]; 10 g/ha,90%
same,visual injury Obs,"[1]; 10 g/ha, Table 2",92%
same,visual injury Obs,"[1]; 10 g/ha, Table 3",90%
same,visual injury Obs,"[1]; 10 g/ha, Table 7",88%
same,visual injury Obs,[2]; 7.5 g/ha,8%
same,visual injury Obs,[2]; 10 g/ha,10%
same,visual injury,[3]; 7.5 g/ha,78%
same,visual injury Obs,"[3]; 7.5 g/ha, Table 3",70%
same,visual injury Obs,"[3]; 7.5 g/ha, Table 5",80%
same,visual injury Obs,"[3]; 7.5 g/ha, Table 6",80%
same,visual injury Obs,"[3]; 7.5 g/ha, Table 7",70%
same,visual injury Obs,"[3]; 7.5 g/ha, Table 8",78%
same,visual injury,[3]; 10 g/ha,73%
same,visual injury Obs,"[3]; 10 g/ha, Table 3",98%
same,visual injury Obs,"[3]; 10 g/ha, Table 5",85%
same,visual injury Obs,"[3]; 10 g/ha, Table 6",85%
same,visual injury Obs,"[3]; 10 g/ha, Table 7",90%
same,visual injury Obs,"[3]; 10 g/ha, Table 8",78%
same,visual injury Obs,"[3]; 15 g/ha, Table 8",83%
same,visual injury Obs,"[4]; 7.5 g/ha, Table 2",55%
same,visual injury Obs,"[4]; 7.5 g/ha, Table 3",55%
same,visual injury Obs,"[4]; 7.5 g/ha, Table 4",73%
same,visual injury Obs,"[4]; 10 g/ha, Table 2",60%
same,visual injury Obs,"[4]; 10 g/ha, Table 3",70%
same,visual injury Obs,"[4]; 10 g/ha, Table 4",83%
same,visual injury,[5]; 7.5 g/ha,78%
same,visual injury Obs,"[5]; 7.5 g/ha, Table 2",70%
same,visual injury Obs,"[5]; 7.5 g/ha, Table 3",88%
same,visual injury Obs,"[5]; 7.5 g/ha, Table 5",68%
same,visual injury Obs,"[5]; 7.5 g/ha, Table 6",68%
same,visual injury Obs,"[5]; 7.5 g/ha, Table 7",60%
same,visual injury Obs,"[5]; 7.5 g/ha, Table 8",63%
same,visual injury,[5]; 10 g/ha,93%
same,visual injury Obs,"[5]; 10 g/ha, Table 2",78%
same,visual injury Obs,"[5]; 10 g/ha, Table 3",96%
same,visual injury Obs,"[5]; 10 g/ha, Table 5",70%
same,visual injury Obs,"[5]; 10 g/ha, Table 6",70%
same,visual injury Obs,"[5]; 10 g/ha, Table 7",70%
same,visual injury Obs,"[5]; 10 g/ha, Table 8",60%
same,visual injury Obs,"[5]; 15 g/ha, Table 8",63%
same,visual injury,[6]; 7.5 g/ha,35%
same,visual injury Obs,"[6]; 7.5 g/ha, Table 7",63%
same,visual injury Obs,"[6]; 7.5 g/ha, Table 8",60%
same,visual injury,[6]; 10 g/ha,43%
same,visual injury Obs,"[6]; 10 g/ha, Table 7",68%
same,visual injury Obs,"[6]; 10 g/ha, Table 8",60%
same,visual injury Obs,"[6]; 15 g/ha, Table 8",75%
same,visual injury,[7]; 7.5 g/ha,63%
same,visual injury Obs,"[7]; 7.5 g/ha, Table 2",50%
same,visual injury Obs,"[7]; 7.5 g/ha, Table 5",63%
same,visual injury Obs,"[7]; 7.5 g/ha, Table 6",63%
same,visual injury Obs,"[7]; 7.5 g/ha, Table 7",65%
same,visual injury Obs,"[7]; 7.5 g/ha, Table 8",70%
same,visual injury,[7]; 10 g/ha,63%
same,visual injury Obs,"[7]; 10 g/ha, Table 2",58%
same,visual injury Obs,"[7]; 10 g/ha, Table 5",65%
same,visual injury Obs,"[7]; 10 g/ha, Table 6",65%
same,visual injury Obs,"[7]; 10 g/ha, Table 7",70%
same,visual injury Obs,"[7]; 10 g/ha, Table 8",70%
same,visual injury Obs,"[7]; 15 g/ha, Table 8",70%
same,visual injury Obs,[8]; 7.5 g/ha,0%
same,visual injury Obs,[8]; 10 g/ha,0%
same,visual injury,[9]; 7.5 g/ha,30%
same,visual injury Obs,"[9]; 7.5 g/ha, Table 3",10%
same,visual injury Obs,"[9]; 7.5 g/ha, Table 4",23%
same,visual injury Obs,"[9]; 7.5 g/ha, Table 5",25%
same,visual injury Obs,"[9]; 7.5 g/ha, Table 6",25%
same,visual injury Obs,"[9]; 7.5 g/ha, Table 7",18%
same,visual injury,[9]; 10 g/ha,40%
same,visual injury Obs,"[9]; 10 g/ha, Table 3",23%
same,visual injury Obs,"[9]; 10 g/ha, Table 4",20%
same,visual injury Obs,"[9]; 10 g/ha, Table 5",20%
same,visual injury Obs,"[9]; 10 g/ha, Table 6",20%
same,visual injury Obs,"[9]; 10 g/ha, Table 7",30%

# Reference: patent US20210392889A1, “COMPOSITIONS COMPRISING PYRIDINE CARBOXYLATE HERBICIDES WITH PDS INHIBITOR HERBICIDES” (Corteva Agriscience LLC, priority 2018, published 2021)
